In ChEMBL document CHEMBL4837239, “Identification of Thieno[3,2-d]pyrimidine Derivatives as Dual Inhibitors of Focal Adhesion Kinase and FMS-like Tyrosine Kinase 3” (J Med Chem, 2021):
Activity calls are given as the source filed them. No cut-off for these calls is given here.

Legend:
CYP2C19 = CYP2C19 (Homo sapiens, UniProt P33261); assay: Inhibition of CYP2C19 (unknown origin) at 10 uM relative to control; assay type: ADME
CYP2D6 = CYP2D6 (Homo sapiens, UniProt P10635); assay: Inhibition of CYP2D6 (unknown origin) at 10 uM relative to control; assay type: ADME
CYP2D6, sequence (P10635 whole entry): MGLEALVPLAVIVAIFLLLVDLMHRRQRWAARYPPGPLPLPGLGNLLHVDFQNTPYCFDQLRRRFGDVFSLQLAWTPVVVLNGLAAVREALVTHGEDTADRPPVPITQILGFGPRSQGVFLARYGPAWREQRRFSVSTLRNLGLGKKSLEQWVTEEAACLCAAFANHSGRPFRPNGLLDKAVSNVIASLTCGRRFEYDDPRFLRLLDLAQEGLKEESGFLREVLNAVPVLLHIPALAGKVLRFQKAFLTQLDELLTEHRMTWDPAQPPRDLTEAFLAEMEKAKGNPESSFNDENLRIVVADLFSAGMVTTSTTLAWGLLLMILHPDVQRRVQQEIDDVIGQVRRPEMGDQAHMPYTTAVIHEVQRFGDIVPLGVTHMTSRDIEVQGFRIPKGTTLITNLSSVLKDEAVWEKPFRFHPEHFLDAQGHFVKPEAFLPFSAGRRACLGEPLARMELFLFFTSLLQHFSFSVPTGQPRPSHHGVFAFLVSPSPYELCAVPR

[1] = Oral bioavailability in mouse at 10 mg/kg; assay type: ADME, organism-based; conditions: in vivo
[2] = target: Casein kinase II subunit alpha (Homo sapiens, UniProt P68400); assay: Inhibition of CK2alpha1 (unknown origin)
[3] = target: Tyrosine-protein kinase Fes/Fps (Homo sapiens, UniProt P07332); assay: Inhibition of Fes (unknown origin)
Tyrosine-protein kinase Fes/Fps, sequence (P07332 whole entry): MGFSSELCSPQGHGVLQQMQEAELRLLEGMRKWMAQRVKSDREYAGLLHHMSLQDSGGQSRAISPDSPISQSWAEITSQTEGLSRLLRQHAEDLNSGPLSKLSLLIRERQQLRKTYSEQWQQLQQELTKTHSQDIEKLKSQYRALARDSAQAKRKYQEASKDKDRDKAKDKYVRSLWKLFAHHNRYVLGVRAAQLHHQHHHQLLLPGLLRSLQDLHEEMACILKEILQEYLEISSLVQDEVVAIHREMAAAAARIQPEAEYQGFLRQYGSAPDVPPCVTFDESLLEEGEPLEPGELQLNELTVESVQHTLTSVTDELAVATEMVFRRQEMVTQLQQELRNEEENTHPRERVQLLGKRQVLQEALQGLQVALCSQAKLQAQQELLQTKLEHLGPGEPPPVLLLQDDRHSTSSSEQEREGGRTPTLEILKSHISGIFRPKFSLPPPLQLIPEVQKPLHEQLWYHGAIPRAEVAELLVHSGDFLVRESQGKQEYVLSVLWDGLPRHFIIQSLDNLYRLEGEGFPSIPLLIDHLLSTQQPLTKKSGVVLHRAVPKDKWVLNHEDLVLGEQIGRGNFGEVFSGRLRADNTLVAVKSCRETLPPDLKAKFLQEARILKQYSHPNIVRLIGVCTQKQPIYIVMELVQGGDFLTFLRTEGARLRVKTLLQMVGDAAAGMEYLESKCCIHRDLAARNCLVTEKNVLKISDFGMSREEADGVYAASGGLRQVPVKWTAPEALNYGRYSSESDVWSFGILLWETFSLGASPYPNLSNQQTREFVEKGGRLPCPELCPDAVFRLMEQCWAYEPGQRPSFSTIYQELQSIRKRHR

[4] = target: Cyclin-dependent kinase 4 (Homo sapiens, UniProt P11802); assay: Inhibition of CDK4 (unknown origin)
Cyclin-dependent kinase 4, sequence (P11802 whole entry): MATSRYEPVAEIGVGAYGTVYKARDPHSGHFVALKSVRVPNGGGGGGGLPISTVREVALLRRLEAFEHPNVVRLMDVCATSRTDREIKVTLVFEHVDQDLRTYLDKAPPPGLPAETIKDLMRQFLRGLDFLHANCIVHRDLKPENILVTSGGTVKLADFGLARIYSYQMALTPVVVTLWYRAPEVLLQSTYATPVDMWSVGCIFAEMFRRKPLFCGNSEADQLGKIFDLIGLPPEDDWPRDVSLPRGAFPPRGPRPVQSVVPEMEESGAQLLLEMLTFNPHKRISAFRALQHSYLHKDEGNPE

Homo sapiens = species: Homo sapiens; assay: Inhibition of FLT3 D835Y mutant (unknown origin) at 0.1 uM
[5] = target: Proto-oncogene tyrosine-protein kinase receptor Ret (Homo sapiens, UniProt P07949); assay: Inhibition of RET (unknown origin) at 0.1 uM
Proto-oncogene tyrosine-protein kinase receptor Ret, sequence (P07949 whole entry): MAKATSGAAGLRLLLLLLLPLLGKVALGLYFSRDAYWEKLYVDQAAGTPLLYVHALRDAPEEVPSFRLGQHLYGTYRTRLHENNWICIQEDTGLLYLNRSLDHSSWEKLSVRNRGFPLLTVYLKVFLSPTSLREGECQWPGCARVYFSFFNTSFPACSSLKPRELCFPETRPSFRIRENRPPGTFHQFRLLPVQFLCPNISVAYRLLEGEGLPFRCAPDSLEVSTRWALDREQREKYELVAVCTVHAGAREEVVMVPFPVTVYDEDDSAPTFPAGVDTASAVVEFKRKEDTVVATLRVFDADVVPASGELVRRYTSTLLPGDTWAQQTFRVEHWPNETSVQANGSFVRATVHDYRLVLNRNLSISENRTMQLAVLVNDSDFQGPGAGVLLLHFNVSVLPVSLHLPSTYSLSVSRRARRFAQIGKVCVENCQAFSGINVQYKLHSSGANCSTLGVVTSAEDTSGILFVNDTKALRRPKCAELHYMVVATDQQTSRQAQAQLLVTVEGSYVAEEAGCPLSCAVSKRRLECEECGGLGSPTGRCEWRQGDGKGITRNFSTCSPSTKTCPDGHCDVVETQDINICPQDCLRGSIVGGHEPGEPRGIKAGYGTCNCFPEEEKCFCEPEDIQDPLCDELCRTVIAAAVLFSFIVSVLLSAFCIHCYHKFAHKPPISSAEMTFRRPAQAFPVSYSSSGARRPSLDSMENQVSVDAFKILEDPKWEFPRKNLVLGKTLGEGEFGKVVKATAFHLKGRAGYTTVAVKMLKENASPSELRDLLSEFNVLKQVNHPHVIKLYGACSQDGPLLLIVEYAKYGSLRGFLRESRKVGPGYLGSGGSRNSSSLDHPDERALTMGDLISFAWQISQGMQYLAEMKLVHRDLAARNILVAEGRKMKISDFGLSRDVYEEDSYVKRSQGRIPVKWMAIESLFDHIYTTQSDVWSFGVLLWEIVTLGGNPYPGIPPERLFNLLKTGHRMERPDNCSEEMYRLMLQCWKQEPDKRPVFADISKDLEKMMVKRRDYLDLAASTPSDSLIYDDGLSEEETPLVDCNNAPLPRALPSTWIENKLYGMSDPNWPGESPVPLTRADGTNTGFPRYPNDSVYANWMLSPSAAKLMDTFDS

Colon carcinoma cell = assay: Antiproliferative activity against human colon cancer cells assessed as growth inhibition measured after 72 hrs by MTT assay; assay type: functional, cell-based
Melanoma cell line = assay: Antiproliferative activity against human skin cancer cells assessed as growth inhibition measured after 72 hrs by MTT assay; assay type: functional, cell-based
Prostatic carcinoma cell = assay: Antiproliferative activity against human prostate cancer cells assessed as growth inhibition measured after 72 hrs by MTT assay; assay type: functional, cell-based
Focal adhesion kinase 1 [6] = target: T1, Focal adhesion kinase 1 (Homo sapiens, UniProt Q05397); assay: Inhibition of FAK autophosphorylation at Y397 in human HCT-116 cells at 5 uM incubated for 24 hrs by Western blot analysis; assay type: cell-based
T1 sequence (Q05397 2-1052 limits assumed): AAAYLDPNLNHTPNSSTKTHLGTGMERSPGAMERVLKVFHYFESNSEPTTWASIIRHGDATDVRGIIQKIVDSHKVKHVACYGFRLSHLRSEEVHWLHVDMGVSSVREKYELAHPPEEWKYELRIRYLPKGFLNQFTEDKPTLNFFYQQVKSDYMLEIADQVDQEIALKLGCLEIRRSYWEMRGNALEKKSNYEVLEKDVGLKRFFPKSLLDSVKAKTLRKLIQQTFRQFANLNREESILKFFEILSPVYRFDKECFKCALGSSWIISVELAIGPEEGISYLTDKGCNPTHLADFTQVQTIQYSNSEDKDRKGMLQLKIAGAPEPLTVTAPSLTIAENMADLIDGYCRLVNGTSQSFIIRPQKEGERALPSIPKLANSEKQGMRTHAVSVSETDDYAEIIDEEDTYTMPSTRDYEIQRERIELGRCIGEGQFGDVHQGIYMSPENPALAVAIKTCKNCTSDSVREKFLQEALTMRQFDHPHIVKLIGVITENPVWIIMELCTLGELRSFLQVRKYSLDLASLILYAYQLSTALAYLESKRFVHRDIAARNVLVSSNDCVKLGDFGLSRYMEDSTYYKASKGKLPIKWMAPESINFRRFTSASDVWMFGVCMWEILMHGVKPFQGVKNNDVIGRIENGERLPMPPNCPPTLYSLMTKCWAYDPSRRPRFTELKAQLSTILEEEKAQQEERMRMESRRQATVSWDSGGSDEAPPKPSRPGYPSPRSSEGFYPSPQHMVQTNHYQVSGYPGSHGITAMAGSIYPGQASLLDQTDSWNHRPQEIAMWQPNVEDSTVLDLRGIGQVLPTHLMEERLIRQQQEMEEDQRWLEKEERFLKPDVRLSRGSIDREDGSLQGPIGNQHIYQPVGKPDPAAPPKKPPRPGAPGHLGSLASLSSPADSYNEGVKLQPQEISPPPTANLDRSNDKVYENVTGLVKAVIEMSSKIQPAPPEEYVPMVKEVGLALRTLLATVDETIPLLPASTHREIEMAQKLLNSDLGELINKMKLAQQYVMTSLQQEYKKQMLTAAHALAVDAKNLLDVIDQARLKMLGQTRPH

Focal adhesion kinase 1 [7] = target: T1, Focal adhesion kinase 1; assay: Inhibition of FAK autophosphorylation at Y397 in human MDA-MB-231 cells at 5 uM incubated for 24 hrs by Western blot analysis; assay type: cell-based
Focal adhesion kinase 1 [8] = target: T1, Focal adhesion kinase 1; assay: Inhibition of FAK autophosphorylation at Y576 in human MDA-MB-231 cells at 5 uM incubated for 24 hrs by Western blot analysis; assay type: cell-based
Focal adhesion kinase 1 [9] = target: T1, Focal adhesion kinase 1; assay: Inhibition of FAK in human MDA-MB-231 cells assessed as inhibition of Pyk2 phosphorylation at 0.5 to 5 uM incubated for 24 hrs by Western blot analysis; assay type: cell-based; conditions: dose 0.5-5 µM
[10] = target: Mitogen-activated protein kinase; ERK1/ERK2 (Homo sapiens) (UniProt P27361+P28482); assay: Inhibition of ERK1/2 autophosphorylation in human HCT-116 cells at 0.5 to 5 uM incubated for 24 hrs by Western blot analysis; assay type: cell-based; conditions: dose 0.5-5 µM
Mitogen-activated protein kinase; ERK1/ERK2 (Homo sapiens), sequence (P27361 whole entry, looked up): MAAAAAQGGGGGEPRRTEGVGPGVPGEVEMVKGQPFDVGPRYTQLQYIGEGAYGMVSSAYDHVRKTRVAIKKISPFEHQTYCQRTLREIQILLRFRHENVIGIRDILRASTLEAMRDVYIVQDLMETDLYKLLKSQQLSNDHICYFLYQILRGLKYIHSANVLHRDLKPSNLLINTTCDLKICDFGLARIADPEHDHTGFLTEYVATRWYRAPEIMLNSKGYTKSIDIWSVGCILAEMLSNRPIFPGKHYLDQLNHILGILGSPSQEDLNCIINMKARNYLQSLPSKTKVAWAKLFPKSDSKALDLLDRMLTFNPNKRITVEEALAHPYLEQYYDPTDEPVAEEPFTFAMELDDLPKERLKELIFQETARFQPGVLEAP
Mitogen-activated protein kinase; ERK1/ERK2 (Homo sapiens), sequence (P28482 whole entry, looked up): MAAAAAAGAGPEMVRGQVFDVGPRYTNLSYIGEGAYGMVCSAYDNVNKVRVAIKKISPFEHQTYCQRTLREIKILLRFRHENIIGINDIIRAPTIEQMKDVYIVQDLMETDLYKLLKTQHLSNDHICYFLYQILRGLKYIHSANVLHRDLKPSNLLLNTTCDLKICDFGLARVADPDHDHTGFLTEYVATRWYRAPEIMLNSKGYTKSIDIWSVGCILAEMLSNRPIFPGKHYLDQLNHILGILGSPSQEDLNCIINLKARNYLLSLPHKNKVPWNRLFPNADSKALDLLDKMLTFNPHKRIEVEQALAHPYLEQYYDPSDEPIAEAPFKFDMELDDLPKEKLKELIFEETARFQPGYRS

MDA-MB-231 [11] = assay: Induction of apoptosis in human MDA-MB-231 cells assessed apoptotic cell death at 10 uM incubated for 24 hrs by Annexin-V/PI analysis; assay type: functional, cell-based
MDA-MB-231 [12] = assay: Growth inhibition of anchorage-Independent human MDA-MB-231 cells assessed as decrease in number of colonies at 10 uM incubated for 72 hrs by MTT assay relative to control; assay type: functional
MDA-MB-231 [13] = assay: In vivo antitumor activity against human MDA-MB-231 cells xenografted in Balb/c mouse assessed as reduction in tumor mass at 40 to 70 mg/kg, po once daily measured for 16 days; assay type: functional, organism-based; conditions: dose 40-70 mg/kg, time 16.0 day
MDA-MB-231 [14] = assay: In vivo antitumor activity against human MDA-MB-231 cells xenografted in Balb/c mouse assessed as reduction in tumor weight at 40 to 70 mg/kg, po once daily measured for 16 days; assay type: functional, organism-based; conditions: dose 40-70 mg/kg, time 16.0 day
[15] = Toxicity in Balb/c mouse xenografted with human MDA-MB-231 cells assessed as change in body weight at 40 to 70 mg/kg, po once daily measured for 16 days; assay type: organism-based; conditions: in vivo, 384 h, dose 40-70 mg/kg, time 16 day
[16] = Antimigratory activity in human HCT-116 cells assessed as suppression of migration at 1 uM measured after 12 hrs by scratch wound healing assay; assay type: functional
MDA-MB-231 [17] = assay: Antimetastatic activity against human MDA-MB-231 cells expressing firefly luciferase xenografted NSG orthotopic mouse model assessed as suppression of lymphogenous metastasis at 70 mg/kg, po once daily measured for 2 weeks; assay type: functional, organism-based
[18] = Toxicity in NSG orthotopic mouse xenografted with human MDA-MB-231 cells assessed as change in body weight at 40 to 70 mg/kg, po once daily measured for 2 weeks; assay type: organism-based; conditions: in vivo, 336 h, dose 40-70 mg/kg
BaF3 = assay: Inhibition of FLT3-ITD/[…] mutant (unknown origin) expressed in mouse Ba/F3 cells assessed as decrease in autophosphorylation at 10 nM by Western blot analysis; assay type: cell-based; conditions: Homo sapiens
[19] = tested on: T2, Receptor-type tyrosine-protein kinase FLT3 (Homo sapiens), P36888 [D835Y]; assay: Inhibition of FLT3-D835Y mutant (unknown origin) expressed in mouse Ba/F3 cells assessed as decrease in ERK phosphorylation at 10 nM by Western blot analysis; assay type: cell-based; conditions: BaF3
T2 sequence (whole entry): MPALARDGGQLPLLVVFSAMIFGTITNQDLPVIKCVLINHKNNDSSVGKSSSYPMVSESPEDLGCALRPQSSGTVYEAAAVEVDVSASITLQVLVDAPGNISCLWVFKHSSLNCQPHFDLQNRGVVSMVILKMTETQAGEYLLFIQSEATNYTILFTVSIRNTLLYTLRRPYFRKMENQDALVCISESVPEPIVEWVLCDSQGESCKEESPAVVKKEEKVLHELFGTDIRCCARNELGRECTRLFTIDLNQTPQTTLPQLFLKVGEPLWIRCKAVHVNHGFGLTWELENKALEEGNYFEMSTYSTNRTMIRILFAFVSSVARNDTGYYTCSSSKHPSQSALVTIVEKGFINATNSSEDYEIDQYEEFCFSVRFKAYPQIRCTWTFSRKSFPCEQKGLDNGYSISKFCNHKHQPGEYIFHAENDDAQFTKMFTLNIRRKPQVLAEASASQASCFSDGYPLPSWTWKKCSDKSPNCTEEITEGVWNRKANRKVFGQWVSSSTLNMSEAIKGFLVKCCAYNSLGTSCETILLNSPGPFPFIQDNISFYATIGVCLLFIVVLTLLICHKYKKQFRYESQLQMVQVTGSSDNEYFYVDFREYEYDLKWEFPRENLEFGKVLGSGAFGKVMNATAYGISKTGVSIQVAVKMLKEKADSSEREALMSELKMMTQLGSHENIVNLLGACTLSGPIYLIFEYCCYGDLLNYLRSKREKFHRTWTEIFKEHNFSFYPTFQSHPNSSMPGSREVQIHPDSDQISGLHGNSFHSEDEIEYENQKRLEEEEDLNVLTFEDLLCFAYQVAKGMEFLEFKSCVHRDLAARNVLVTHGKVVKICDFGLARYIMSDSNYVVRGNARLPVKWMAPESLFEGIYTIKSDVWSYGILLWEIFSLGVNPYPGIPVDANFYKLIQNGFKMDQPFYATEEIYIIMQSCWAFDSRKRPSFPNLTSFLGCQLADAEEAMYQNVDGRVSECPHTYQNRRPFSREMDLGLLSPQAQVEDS

MV4-11 = assay: In vivo antitumor activity against human MV4-11 cells xenografted in mouse assessed as tumor growth inhibition at 50 mg/kg, po; assay type: functional; conditions: MV4-11, po

CYP2C19, sequence (P33261 whole entry): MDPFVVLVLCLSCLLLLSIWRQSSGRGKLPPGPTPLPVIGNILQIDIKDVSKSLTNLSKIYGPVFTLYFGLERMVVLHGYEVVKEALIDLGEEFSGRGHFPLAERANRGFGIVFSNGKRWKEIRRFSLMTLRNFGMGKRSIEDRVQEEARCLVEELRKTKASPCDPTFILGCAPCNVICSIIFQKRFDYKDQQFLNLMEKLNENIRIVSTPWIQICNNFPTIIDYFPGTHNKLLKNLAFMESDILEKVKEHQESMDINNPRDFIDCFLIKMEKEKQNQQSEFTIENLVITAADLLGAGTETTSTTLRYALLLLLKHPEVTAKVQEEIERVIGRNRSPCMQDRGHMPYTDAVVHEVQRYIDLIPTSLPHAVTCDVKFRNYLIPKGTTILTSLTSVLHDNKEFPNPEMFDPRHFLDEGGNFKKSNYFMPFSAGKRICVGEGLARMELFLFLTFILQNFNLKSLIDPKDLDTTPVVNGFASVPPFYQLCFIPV

- inhibition at 10 µM (CYP2C19): 90.6%
- inhibition at 10 µM (CYP2D6): 100%
- bioavailability [1]: 15.8%
- IC50 [2]: 13.9 nM
- IC50 [3]: 4.9 nM
- IC50 [4]: 8.5 nM
- inhibition (Homo sapiens): 98.4%
- inhibition [5]: 95.3%
- inhibition (Focal adhesion kinase 1 [6]): Active
- inhibition (Focal adhesion kinase 1 [7]): Active
- inhibition (Focal adhesion kinase 1 [8]): Active
- inhibition (Focal adhesion kinase 1 [9]): Active
- inhibition [10]: inactive
- inhibition [19]: 100%
SMILES: CCN1CCN(c2ccc(Nc3ncc4scc(-c5cccc(NS(C)(=O)=O)c5)c4n3)cc2)CC1
- Activity (Colon carcinoma cell): Active
- Activity (Melanoma cell line): Active
- Activity (Prostatic carcinoma cell): Active
- Activity (MDA-MB-231 [11]): Active
- inhibition at 10 µM (MDA-MB-231 [12]): 75%
- Activity (MDA-MB-231 [13]): Active
- Activity (MDA-MB-231 [14]): Active
- Activity [15]: Non-Toxic
- inhibition at 1 µM [16]: 50%
- Activity (MDA-MB-231 [17]): Active
- Activity [18]: Non-Toxic
- inhibition (BaF3): 100%
- inhibition in vivo at 50 mg/kg (MV4-11): 96%
